Patent publication US11945784B2, “IRE1 small molecule inhibitors” (Cornell University, priority 2018, dated 2024)

Columns and labels:
[1] = molecular target: T1, IRE1α (Homo sapiens (Human), UniProt O75460); assay: In vitro FRET assay; format: biochemical; settings: XBP1 RNA probe
Method: In vitro FRET assay was performed to evaluate the ability of select compounds to inhibit IRE1, the results of which are summarized in Table 3. To perform the in vitro FRET assay, 1× complete assay buffer (CAB; […], 50 mM sodium citrate pH 7.15, 1 mM magnesium acetate, 0.02% tween 20) was used to dilute SignalChem IRE1α protein to a final concentration of 2 nM. Selected compounds were serially diluted with DMSO in a non-binding black 384-well plate for a total of 15 ul in each well. 2 ul of the serially diluted compound or DMSO control were then added to new wells containing 98 ul of 1×CAB, for a total volume of 100 ul, 10 ul of which were then transferred to wells of a new plate. 5 ul of the diluted IRE1α was then added to each well. 5 ul of a […] XBP1 RNA probe was then added to each well. Fluorescence was then read over 30 minutes in kinetic mode (485/515 nm).
Two RNA probes were used, XBP1 wildtype (SEQ ID NO: 2) which is able to be spliced by active IRE1α or XBP1 mutant (SEQ ID NO: 3) which is unable to be spliced. Each probe contained a 5′ 6-FAM modification and a 3′ IOWA Black FQ modification.
A second FRET assay was performed to assess ATP-mediated inhibition. In this case, compounds and IRE1α were prepared and combined as discussed above, with the addition of ATP up to 1 mM final concentration. This mixture was incubated at room temperature for 60 minutes and then 5 ul of 400 nM XBP1 wildtype or mutant RNA probe was added. Plates were then read over 30 minutes in kinetic mode (485/515 nm) and rate of fluorescence increase calculated for different compound dilutions to determine IC50 (Table 3).

[2] = molecular target: T1, IRE1α; assay: In vitro luciferase assay (IRE1α Endoribonuclease Nanoluciferase Assay); format: cell-based; settings: 293T cells, XBP1 luciferase reporter
Method: Compounds disclosed herein were assessed for disruption of IRE-1 signaling using a IRE1α Endoribonuclease Nanoluciferase Assay. Briefly, 2.5×10^6 293T cells were seeded in a 10 cm^2 tissue culture plate. About 24 hours later, the cells were transfected with Effectene. In a 15 mL Tube, the following was added: 2 μg XBP1 luciferase reporter plasmid (PGK-Luc2-P2A-XBP1u-Nanoluciferase-PEST); 300 μl EC buffer; and 16 μl Enhancer, followed by incubation at room temp for 5 minutes. Next, 60 μl Effectene (Qiagen 301427) was added, followed by incubation at room temperature for 10 minutes. 2.6 mL cDMEM media was added. Old media was aspirated from the cells, followed by addition of 7 mL fresh media. Full transfection mixture was added dropwise to cells. Cells were incubated for 6 hours, followed by trypsinization, centrifugation and resuspension in 11 mL media. 100 uL of cells were plated per a well in a 96 well plate. A day later, ER stressors of choice+/−inhibitors were added. To harvest, media was aspirated from cells completely, then 50 uL 1× passive lysis buffer (Promega: E1941) was added per well and put on shaker (300 rpm) for 30 minutes at room temperature. Cells were centrifuged, and 15 uL sample per well was added to a new, opaque white 384 well plate (Corning 3570). 15 uL OneGlo (nanoluciferase kit, Promega N1630) was added. Plates were spun down, placed on shaker (300 rpm) for 10 minutes. Plates were read on luminometer, 1000 ms integration time per well. 15 uL Stop and Glo (nanoluciferase kit) was added. Plates were spun down, placed on shaker (300 rpm) for 10 minutes. Plates were read on luminometer, 1000 ms second integration time per well. Recordings are provided below in Table 4

T1 sequence (O75460 19-977): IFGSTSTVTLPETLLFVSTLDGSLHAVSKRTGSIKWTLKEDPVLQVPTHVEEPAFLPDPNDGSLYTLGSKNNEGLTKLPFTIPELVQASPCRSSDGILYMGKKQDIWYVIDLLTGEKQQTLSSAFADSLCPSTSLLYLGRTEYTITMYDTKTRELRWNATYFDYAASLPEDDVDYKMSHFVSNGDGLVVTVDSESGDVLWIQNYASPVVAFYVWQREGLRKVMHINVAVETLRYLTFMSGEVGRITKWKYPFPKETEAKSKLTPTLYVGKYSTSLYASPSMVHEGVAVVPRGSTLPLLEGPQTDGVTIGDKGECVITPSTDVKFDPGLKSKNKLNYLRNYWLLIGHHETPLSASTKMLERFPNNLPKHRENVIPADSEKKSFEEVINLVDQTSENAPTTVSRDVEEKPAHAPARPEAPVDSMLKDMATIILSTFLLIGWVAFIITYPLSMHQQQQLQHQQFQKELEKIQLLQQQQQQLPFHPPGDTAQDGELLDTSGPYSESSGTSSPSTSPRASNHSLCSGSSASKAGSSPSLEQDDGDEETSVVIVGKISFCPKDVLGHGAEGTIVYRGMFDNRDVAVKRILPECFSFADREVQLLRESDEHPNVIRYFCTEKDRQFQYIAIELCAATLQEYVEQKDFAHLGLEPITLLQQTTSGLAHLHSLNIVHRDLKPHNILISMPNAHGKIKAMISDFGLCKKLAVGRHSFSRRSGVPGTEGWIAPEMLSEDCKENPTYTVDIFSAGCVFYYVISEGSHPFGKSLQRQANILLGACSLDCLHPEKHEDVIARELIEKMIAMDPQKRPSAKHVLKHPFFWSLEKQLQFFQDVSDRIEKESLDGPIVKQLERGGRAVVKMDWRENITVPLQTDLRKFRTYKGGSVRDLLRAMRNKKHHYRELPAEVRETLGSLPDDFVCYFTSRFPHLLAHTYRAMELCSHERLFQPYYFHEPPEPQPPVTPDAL

Row | SMILES | IC50 [1] | EC50 [2]
1 | CCCc1nc(NC2CCC(N)CC2)ncc1/C=C/c1ccc(NS(=O)(=O)c2ccccc2Cl)cc1 (stereo not shown) [Compound 4, N-(4-((E)-2-(2-(((1r,4r)-4-aminocyclohexyl)amino)-4-propylpyrimidin-5-yl)vinyl)phenyl)-2-chlorobenzenesulfonamide] | 1 to 5 nM | 50 to 100 nM
2 | COc1cc(NS(=O)(=O)c2ccccc2Cl)ccc1CCc1cnc(NC2CCC(N)CC2)nc1 (stereo not shown) [Compound 15, N-(4-(2-(2-(((1r,4r)-4-aminocyclohexyl)amino)pyrimidin-5-yl)ethyl)-3-methoxyphenyl)-2-chlorobenzenesulfonamide] | ≤ 1 nM | 100 to 10000 nM
3 | CCc1cc(NS(=O)(=O)c2ccccc2Cl)cnc1CCc1cnc(NC2CCC(N)CC2)nc1 (stereo not shown) [Compound 16, N-(6-(2-(2-(((1r,4r)-4-aminocyclohexyl)amino)pyrimidin-5-yl)ethyl)-5-ethylpyridin-3-yl)-2-chlorobenzenesulfonamide] | ≤ 1 nM | 100 to 10000 nM
4 | COc1cc(NS(=O)(=O)c2ccccc2Cl)cnc1CCc1cnc(NC2CCC(N)CC2)nc1 (stereo not shown) [Compound 18, N-(6-(2-(2-(((1r,4r)-4-aminocyclohexyl)amino)pyrimidin-5-yl)ethyl)-5-methoxypyridin-3-yl)-2-chlorobenzenesulfonamide] | ≤ 1 nM | –
5 | Cc1nc(NS(=O)(=O)c2ccccc2Cl)ccc1CCc1cnc(NC2CCC(N(C)C)CC2)nc1 (stereo not shown) [Compound 21, 2-chloro-N-(5-(2-(2-(((1r,4r)-4-(dimethylamino)cyclohexyl)amino)pyrimidin-5-yl)ethyl)-6-methylpyridin-2-yl)benzenesulfonamide] | 1 to 5 nM | –
6 | Cc1nc(NS(=O)(=O)c2ccccc2Cl)c(F)cc1/C=C/c1cnc(NC2CCC(N(C)C)CC2)nc1 (stereo not shown) [Compound 22, 2-chloro-N-(5-((E)-2-(2-(((1r,4r)-4-(dimethylamino)cyclohexyl)amino)pyrimidin-5-yl)vinyl)-3-fluoro-6-methylpyridin-2-yl)benzenesulfonamide] | ≤ 1 nM | ≤ 5 nM
7 | CCc1nc(NS(=O)(=O)c2ccccc2Cl)ccc1/C=C/c1cnc(NC2CCC(N(C)C)CC2)nc1 (stereo not shown) [Compound 29, 2-chloro-N-(5-((E)-2-(2-(((1r,4r)-4-(dimethylamino)cyclohexyl)amino)pyrimidin-5-yl)vinyl)-6-ethylpyridin-2-yl)benzenesulfonamide] | ≤ 1 nM | ≤ 5 nM
8 | CCN(CC)C1CCC(Nc2ncc(/C=C/c3ccc(NS(=O)(=O)c4ccccc4Cl)nc3C)cn2)CC1 (stereo not shown) [Compound 30, 2-chloro-N-(5-((E)-2-(2-(((1r,4r)-4-(diethylamino)cyclohexyl)amino)pyrimidin-5-yl)vinyl)-6-methylpyridin-2-yl)benzenesulfonamide] | ≤ 1 nM | ≤ 5 nM
9 | Cc1nc(NS(=O)(=O)c2ccc(F)cc2Cl)ccc1/C=C/c1cnc(NC2CCC(N(C)C)CC2)nc1 (stereo not shown) [Compound 31, 2-chloro-N-(5-((E)-2-(2-(((1r,4r)-4-(dimethylamino)cyclohexyl)amino)pyrimidin-5-yl)vinyl)-6-methylpyridin-2-yl)-4-fluorobenzenesulfonamide] | ≤ 1 nM | ≤ 5 nM
10 | CN(C)C1CCC(Nc2ncc(/C=C/c3ccc(NS(=O)(=O)c4ccccc4Cl)c(F)c3)cn2)CC1 (stereo not shown) [Compound 35, 2-chloro-N-(4-((E)-2-(2-(((1r,4r)-4-(dimethylamino)cyclohexyl)amino)pyrimidin-5-yl)vinyl)-2-fluorophenyl)benzenesulfonamide] | ≤ 1 nM | 5 to 50 nM
11 | CN(C)C1CCC(Nc2ncc(C=Cc3cnc(NS(=O)(=O)c4ccccc4Cl)nc3)cn2)CC1 (stereo not shown) [Compound 40, 2-chloro-N-(5-(2-(2-(((1r,4r)-4-(dimethylamino)cyclohexyl)amino)pyrimidin-5-yl)vinyl)pyrimidin-2-yl)benzenesulfonamide] | ≤ 1 nM | –
12 | COc1nc(NS(=O)(=O)c2cnccc2Cl)ncc1C=Cc1cnc(NC2CCC(N(C)C)CC2)nc1 (stereo not shown) [Compound 43, 4-chloro-N-(5-(2-(2-(((1r,4r)-4-(dimethylamino)cyclohexyl)amino)pyrimidin-5-yl)vinyl)-4-methoxypyrimidin-2-yl)pyridine-3-sulfonamide] | 1 to 5 nM | –

Next, values leading:

Row | IC50 [1] | EC50 [2] | SMILES
13 | ≤ 1 nM | ≤ 5 nM | COc1nc(NS(=O)(=O)c2cccc(F)c2Cl)ccc1/C=C/c1cnc(NC2CCC(N(C)C)CC2)nc1 (single isomer, unassigned) [Compound 39, 2-chloro-N-(5-((E)-2-(2-(((1r,4r)-4-(dimethylamino)cyclohexyl)amino)pyrimidin-5-yl)vinyl)-6-methoxypyridin-2-yl)-3-fluorobenzenesulfonamide]
14 | ≤ 1 nM | ≤ 5 nM | Cc1cc(NS(=O)(=O)c2ccccc2Cl)ccc1/C=C/c1cnc(NC2CCC(N)CC2)nc1 (stereo not shown) [Compound 5, N-(4-((E)-2-(2-(((1r,4r)-4-aminocyclohexyl)amino)pyrimidin-5-yl)vinyl)-3-methylphenyl)-2-chlorobenzenesulfonamide]
15 | ≤ 1 nM | ≤ 5 nM | COc1nc(NS(=O)(=O)c2ccccc2Cl)ccc1/C=C/c1cnc(NC2CCC(N)CC2)nc1 (stereo not shown) [Compound 9, N-(5-((E)-2-(2-(((1r,4r)-4-aminocyclohexyl)amino)pyrimidin-5-yl)vinyl)-6-methoxypyridin-2-yl)-2-chlorobenzenesulfonamide]
16 | 100 to 1000 nM | – | Cc1nc(NS(=O)(=O)c2ccccc2Cl)ccc1CCc1cnc(NC2CCC(O)CC2)nc1 (stereo not shown) [Compound 20, 2-chloro-N-(5-(2-(2-(((1r,4r)-4-hydroxycyclohexyl)amino)pyrimidin-5-yl)ethyl)-6-methylpyridin-2-yl)benzenesulfonamide]
17 | ≤ 1 nM | ≤ 5 nM | Cc1cc(NS(=O)(=O)c2ccccc2Cl)c(F)cc1/C=C/c1cnc(NC2CCC(N(C)C)CC2)nc1 (stereo not shown) [Compound 28, 2-chloro-N-(4-((E)-2-(2-(((1r,4r)-4-(dimethylamino)cyclohexyl)amino)pyrimidin-5-yl)vinyl)-2-fluoro-5-methylphenyl)benzenesulfonamide]
18 | ≤ 1 nM | ≤ 5 nM | COc1nc(NS(=O)(=O)c2ccc(F)cc2Cl)ccc1/C=C/c1cnc(NC2CCC(N(C)C)CC2)nc1 (stereo not shown) [Compound 32, 2-chloro-N-(5-((E)-2-(2-(((1r,4r)-4-(dimethylamino)cyclohexyl)amino)pyrimidin-5-yl)vinyl)-6-methoxypyridin-2-yl)-4-fluorobenzenesulfonamide]
19 | ≤ 1 nM | ≤ 5 nM | Cc1nc(NS(=O)(=O)c2cccc(F)c2Cl)ccc1/C=C/c1cnc(NC2CCC(N(C)C)CC2)nc1 (stereo not shown) [Compound 33, 2-chloro-N-(5-((E)-2-(2-(((1r,4r)-4-(dimethylamino)cyclohexyl)amino)pyrimidin-5-yl)vinyl)-6-methylpyridin-2-yl)-3-fluorobenzenesulfonamide]
20 | ≤ 1 nM | ≤ 5 nM | CN(C)C1CCC(Nc2ncc(/C=C/c3ccc(NS(=O)(=O)c4ccccc4Cl)cc3)cn2)CC1 (stereo not shown) [Compound 34, 2-chloro-N-(4-((E)-2-(2-(((1r,4r)-4-(dimethylamino)cyclohexyl)amino)pyrimidin-5-yl)vinyl)phenyl)benzenesulfonamide]
21 | ≤ 1 nM | ≤ 5 nM | CN(C)C1CCC(Nc2ncc(/C=C/c3ccc(NS(=O)(=O)c4ccccc4Cl)nc3)cn2)CC1 (stereo not shown) [Compound 36, 2-chloro-N-(5-((E)-2-(2-(((1r,4r)-4-(dimethylamino)cyclohexyl)amino)pyrimidin-5-yl)vinyl)pyridin-2-yl)benzenesulfonamide]
